Results taken from PubChem BioAssay AID248 (DTP/NCI, 2004).
“And” between values parts separate entries of the source, which are not always exact repeats. Equal entries are not always repeated. Inconclusive results and toxic doses are left out. Cut-off read from the data, not from the text of the source: active = T/C of 150% or more; inactive = T/C below 125%.

Test system: L1210 leukemia ip in BDF1 mice, survival T/C
Test: NCI In Vivo Anticancer Drug Screen. Data for tumor model L1210 Leukemia (intraperitoneal) in B6D2F1 (BDF1) mice
Details: endpoint: mean survival time, higher = longer survival
Procedure, shortened: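 Tumor cells were implanted, animals were treated, and survival was followed. The result divides the treated measurement by the vehicle-control measurement.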

[1] = dose: 100.0 mg/kg/injection, schedule: Q01DX009 (ip), vehicle: saline with Tween-80
[2] = dose: 200.0 mg/kg/injection, schedule: Q01DX009 (ip), vehicle: saline with Tween-80
[3] = dose: 100.0 mg/kg/injection, schedule: Q04DX003 (ip), vehicle: Klucel (hydroxypropylcellulose) (HPC)
[4] = dose: 200.0 mg/kg/injection, schedule: Q04DX003 (ip), vehicle: Klucel (hydroxypropylcellulose) (HPC)
[5] = dose: 400.0 mg/kg/injection, schedule: Q04DX003 (ip), vehicle: Klucel (hydroxypropylcellulose) (HPC)
[6] = dose: 50.0 mg/kg/injection, schedule: Q01DX009 (ip), vehicle: saline
[7] = dose: 100.0 mg/kg/injection, schedule: Q01DX001 (ip), vehicle: carboxymethylcellulose (CMC)
[8] = dose: 200.0 mg/kg/injection, schedule: Q01DX001 (ip), vehicle: carboxymethylcellulose (CMC)
[9] = dose: 100.0 mg/kg/injection, schedule: Q01DX009 (ip), vehicle: Klucel (hydroxypropylcellulose) (HPC)
[10] = dose: 200.0 mg/kg/injection, schedule: Q01DX009 (ip), vehicle: Klucel (hydroxypropylcellulose) (HPC)

Measured: T/C

CCOC(C)C(/C=N/NC(N)=S)=NNC(N)=S (centres undefined)
inactive: dose: 15.0 mg/kg/injection, schedule: Q01DX010 (ip), vehicle: saline 95 % of control | dose: 15.0 mg/kg/injection, schedule: Q01DX Z (ip), vehicle: carboxymethylcellulose (CMC) 101 % of control | dose: 30.0 mg/kg/injection, schedule: Q01DX010 (ip), vehicle: saline 89 % of control | dose: 30.0 mg/kg/injection, schedule: Q01DX Z (ip), vehicle: carboxymethylcellulose (CMC) 95 % of control | dose: 60.0 mg/kg/injection, schedule: Q01DX010 (ip), vehicle: saline 92 % of control | dose: 60.0 mg/kg/injection, schedule: Q01DX Z (ip), vehicle: carboxymethylcellulose (CMC) 100 % of control and 102 % of control | dose: 60.0 mg/kg/injection, schedule: Q01DX Z (oral), vehicle: carboxymethylcellulose (CMC) 100 % of control | dose: 120.0 mg/kg/injection, schedule: Q01DX Z (ip), vehicle: carboxymethylcellulose (CMC) 93 % of control and 103 % of control | dose: 120.0 mg/kg/injection, schedule: Q01DX Z (oral), vehicle: carboxymethylcellulose (CMC) 106 % of control | dose: 240.0 mg/kg/injection, schedule: Q01DX Z (oral), vehicle: carboxymethylcellulose (CMC) 93 % of control

O=c1c(O)c(-c2ccc(O)cc2O)oc2cc(O)cc(O)c12
inactive: [1] 103 % of control | [2] 98 % of control | dose: 400.0 mg/kg/injection, schedule: Q01DX009 (ip), vehicle: saline with Tween-80 90 % of control

COB(C1CCCCC1)C1CCCCC1
inactive: [3] 91 % of control | [4] 98 % of control | [5] 100 % of control

CC1(C(N)=O)OCCO1
inactive: dose: 100.0 mg/kg/injection, schedule: Q04DX003 (ip), vehicle: saline 103 % of control | dose: 200.0 mg/kg/injection, schedule: Q04DX003 (ip), vehicle: saline 96 % of control | dose: 400.0 mg/kg/injection, schedule: Q04DX003 (ip), vehicle: saline 100 % of control

O=C(NC/C=C/Br)Nc1c2ccccc2nc2ccccc12
inactive: dose: 12.5 mg/kg/injection, schedule: Q01DX009 (ip), vehicle: saline 102 % of control | dose: 25.0 mg/kg/injection, schedule: Q01DX009 (ip), vehicle: saline 102 % of control | [6] 109 % of control

CCCCC(=O)N1CCCCC1C (centres undefined)
inactive: dose: 50.0 mg/kg/injection, schedule: Q01DX001 (ip), vehicle: carboxymethylcellulose (CMC) 102 % of control | dose: 50.0 mg/kg/injection, schedule: Q01DX009 (ip), vehicle: carboxymethylcellulose (CMC) 94 % of control and 100 % of control | dose: 50.0 mg/kg/injection, schedule: Q04DX003 (ip), vehicle: carboxymethylcellulose (CMC) 96 % of control | [7] 101 % of control | dose: 100.0 mg/kg/injection, schedule: Q01DX009 (ip), vehicle: carboxymethylcellulose (CMC) 97 % of control and 98 % of control | dose: 100.0 mg/kg/injection, schedule: Q04DX002 (ip), vehicle: carboxymethylcellulose (CMC) 105 % of control | dose: 100.0 mg/kg/injection, schedule: Q04DX003 (ip), vehicle: carboxymethylcellulose (CMC) 100 % of control | [8] 101 % of control | dose: 200.0 mg/kg/injection, schedule: Q01DX009 (ip), vehicle: carboxymethylcellulose (CMC) 96 % of control and 97 % of control | dose: 200.0 mg/kg/injection, schedule: Q04DX002 (ip), vehicle: carboxymethylcellulose (CMC) 98 % of control | dose: 200.0 mg/kg/injection, schedule: Q04DX003 (ip), vehicle: carboxymethylcellulose (CMC) 105 % of control | dose: 400.0 mg/kg/injection, schedule: Q04DX002 (ip), vehicle: carboxymethylcellulose (CMC) 102 % of control

CC1CCC(NC(=O)NCCCl)c2ccccc21 (centres undefined)
inactive: dose: 20.0 mg/kg/injection, schedule: Q04DX003 (ip), vehicle: Klucel (hydroxypropylcellulose) (HPC) 102 % of control | dose: 40.0 mg/kg/injection, schedule: Q04DX003 (ip), vehicle: Klucel (hydroxypropylcellulose) (HPC) 100 % of control | dose: 80.0 mg/kg/injection, schedule: Q04DX003 (ip), vehicle: Klucel (hydroxypropylcellulose) (HPC) 100 % of control

CC1COCC(C)N1CC(=O)Nc1ccc(S(=O)(=O)c2ccc(NC(=O)CN3C(C)COCC3C)cc2)cc1 (centres undefined)
inactive: [7] 107 % of control | [8] 95 % of control | dose: 400.0 mg/kg/injection, schedule: Q01DX001 (ip), vehicle: carboxymethylcellulose (CMC) 95 % of control

OC(c1cccc2ccccc12)c1c2ccccc2cc2ccccc12 (centres undefined)
inactive: [6] 96 % of control | dose: 100.0 mg/kg/injection, schedule: Q01DX005 (ip), vehicle: saline 98 % of control | dose: 100.0 mg/kg/injection, schedule: Q01DX009 (ip), vehicle: saline 102 % of control and 104 % of control | dose: 100.0 mg/kg/injection, schedule: Q04DX002 (ip), vehicle: saline 93 % of control | dose: 200.0 mg/kg/injection, schedule: Q01DX005 (ip), vehicle: saline 103 % of control | dose: 200.0 mg/kg/injection, schedule: Q01DX009 (ip), vehicle: saline 100 % of control | dose: 200.0 mg/kg/injection, schedule: Q04DX002 (ip), vehicle: saline 97 % of control | dose: 400.0 mg/kg/injection, schedule: Q01DX005 (ip), vehicle: saline 106 % of control | dose: 400.0 mg/kg/injection, schedule: Q01DX009 (ip), vehicle: saline 108 % of control and 91 % of control | dose: 400.0 mg/kg/injection, schedule: Q04DX002 (ip), vehicle: saline 97 % of control

O=C(COc1cc(Cl)c(Cl)cc1Cl)OCCOc1cc(Cl)c(Cl)cc1Cl
inactive: dose: 7.5 mg/kg/injection, schedule: Q01DX001 (ip), vehicle: saline 97 % of control | dose: 15.0 mg/kg/injection, schedule: Q01DX001 (ip), vehicle: saline 95 % of control | dose: 30.0 mg/kg/injection, schedule: Q01DX001 (ip), vehicle: saline 93 % of control

CCCCCCCCCNC(=O)Nc1cccc(Cl)c1C
inactive: [1] 86 % of control | dose: 100.0 mg/kg/injection, schedule: Q04DX003 (ip), vehicle: saline with Tween-80 90 % of control | [2] 87 % of control | dose: 200.0 mg/kg/injection, schedule: Q04DX003 (ip), vehicle: saline with Tween-80 90 % of control | dose: 400.0 mg/kg/injection, schedule: Q04DX003 (ip), vehicle: saline with Tween-80 90 % of control

OCCSC(SCCO)=C(SCCO)SCCO
inactive: [9] 105 % of control | [3] 97 % of control | [10] 102 % of control | [4] 92 % of control | dose: 400.0 mg/kg/injection, schedule: Q01DX009 (ip), vehicle: Klucel (hydroxypropylcellulose) (HPC) 96 % of control | [5] 94 % of control

CCC[CH2][Sn]([CH2]CCC)([O]S(C)(=O)=O)[O]S(C)(=O)=O
inactive: dose: 1.56 mg/kg/injection, schedule: Q01DX009 (ip), vehicle: Klucel (hydroxypropylcellulose) (HPC) 105 % of control | dose: 3.12 mg/kg/injection, schedule: Q01DX009 (ip), vehicle: Klucel (hydroxypropylcellulose) (HPC) 105 % of control

Cc1cc(C)c2ccc([S+](C)C)c-2c(C)c1
inactive: dose: 5.0 mg/kg/injection, schedule: Q01DX001 (ip), vehicle: carboxymethylcellulose (CMC) 105 % of control | dose: 10.0 mg/kg/injection, schedule: Q01DX001 (ip), vehicle: carboxymethylcellulose (CMC) 100 % of control | dose: 20.0 mg/kg/injection, schedule: Q01DX001 (ip), vehicle: carboxymethylcellulose (CMC) 105 % of control | dose: 40.0 mg/kg/injection, schedule: Q01DX001 (ip), vehicle: carboxymethylcellulose (CMC) 108 % of control | dose: 80.0 mg/kg/injection, schedule: Q01DX001 (ip), vehicle: carboxymethylcellulose (CMC) 97 % of control

Cn1c(N)c(C(C[N+](=O)[O-])c2ccccc2)c(=O)n(C)c1=O (centres undefined)
inactive: dose: 50.0 mg/kg/injection, schedule: Q01DX009 (ip), vehicle: Klucel (hydroxypropylcellulose) (HPC) 95 % of control | [9] 92 % of control | [10] 98 % of control

C1CCN2CC3CC(CN4CCCCC34)C2C1 (centres undefined)
inactive: dose: 10.0 mg/kg/injection, schedule: Q01DX009 (ip), vehicle: saline 104 % of control | dose: 20.0 mg/kg/injection, schedule: Q01DX009 (ip), vehicle: saline 102 % of control | dose: 20.0 mg/kg/injection, schedule: Q04DX003 (ip), vehicle: saline 100 % of control | dose: 40.0 mg/kg/injection, schedule: Q01DX009 (ip), vehicle: saline 100 % of control | dose: 40.0 mg/kg/injection, schedule: Q04DX003 (ip), vehicle: saline 96 % of control
